Source: patent publication US20100184815A1 (priority 2008, published 2010)

Key:
Assay type in all cases: cell-based
[1] = molecular target: T1, Gal-4 hPPARα (Homo sapiens, UniProt Q07869); assay: Gal4-hPPARα transient transfection reporter assay in Cos cells; conditions: luciferase reporter, 24 hours with compound, scale 1-5, read-out: Gal-4 hPPAR α EC50 (scaled number)
T1 construct: Plasmids pGal4-hPPARα, pGal4-hPPARγ, pGal4-hPPARδ and pG5-TK-pGL3 were constructed as previously described by Staels, Bart, et al., Nature 1998 Jun; 25
T1 sequence (Q07869 200-468 limits assumed): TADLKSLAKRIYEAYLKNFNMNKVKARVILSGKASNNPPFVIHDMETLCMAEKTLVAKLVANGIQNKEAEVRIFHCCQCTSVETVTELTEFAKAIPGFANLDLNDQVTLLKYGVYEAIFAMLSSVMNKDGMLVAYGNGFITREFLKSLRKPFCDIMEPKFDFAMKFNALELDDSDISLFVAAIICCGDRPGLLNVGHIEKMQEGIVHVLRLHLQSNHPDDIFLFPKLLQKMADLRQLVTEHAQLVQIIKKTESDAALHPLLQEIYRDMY
Method: (§1) Construction of recombinant plasmids. Plasmids pGal4-hPPARα, pGal4-hPPARγ, pGal4-hPPARδ and pG5-TK-pGL3 were constructed as previously described by Staels, Bart, et al., Nature 1998 Jun. 25; 393 (6687): 790-793, by Staels (Institut Pasteur de Lille, FR).
(§2) Transient transfection assays. Cos cells were seeded in 60-mm dishes at a density of 5.5×10^5 cells/dish in Dulbecco's modified Eagle's medium (DMEM) supplemented with 10% fetal calf serum (FCS) and incubated at 37° C. for 24 hours before transfection. Cells were transfected in Opti-MEM (Gibco; Invitrogen, Carlsbad, Calif.) without FCS for 3 hours at 37° C., using polyethylenimine, with reporter and expression plasmids. The plasmid pBluescript (Stratagene, La Jolla, Calif.) was used as carrier DNA to set the final amount of DNA to 5.5 μg/dish. The pCMV-b-galactosidase expression plasmid was cotransfected as a control for transfection efficiency. Transfection was stopped by the addition of DMEM supplemented with 10% FCS, and cells were then incubated at 37° C. After 16 hours, cells were trypsinized and seeded in 96-well plates at the density of 2×10^4 cells/well and incubated for 6 hours in 10% FCS-containing DMEM. Cells were then incubated for 24 hours in DMEM containing 0.2% FCS and increasing concentrations of the compound tested or vehicle (DMSO). At the end of the experiment, cells were washed once with ice-cold PBS, lysed and the luciferase and b-galactosidase assays were performed in a luminometer and spectrophotomer. Transfection efficiencies were normalized with the b-galactosidase activity assay. Half-maximal effective concentration (EC50) was estimated using Prism software (GraphPad). All transfection experiments were performed at least three times.
(§3) In the following tables, proprietary compound EC50 values for hPPAR α, β, δ and γ are shown. The EC50 value is the concentration of a drug that induces a response halfway between the baseline and maximum, and is commonly used as a measure of drug potency. EC50 values are reported on a scale of 1 through 5, wherein the value scale is defined for each receptor as follows: […]

[2] = molecular target: T2, Gal-4 hPPARβ/δ (Homo sapiens, UniProt Q03181); assay: Gal4-hPPARδ transient transfection reporter assay in Cos cells; conditions: luciferase reporter, 24 hours with compound, scale 1-5, read-out: Gal-4 hPPAR β/δ EC50 (scaled number)
T2 construct: Plasmids pGal4-hPPARα, pGal4-hPPARγ, pGal4-hPPARδ and pG5-TK-pGL3 were constructed as previously described by Staels, Bart, et al., Nature 1998 Jun; 25
T2 sequence (Q03181 171-441 limits assumed): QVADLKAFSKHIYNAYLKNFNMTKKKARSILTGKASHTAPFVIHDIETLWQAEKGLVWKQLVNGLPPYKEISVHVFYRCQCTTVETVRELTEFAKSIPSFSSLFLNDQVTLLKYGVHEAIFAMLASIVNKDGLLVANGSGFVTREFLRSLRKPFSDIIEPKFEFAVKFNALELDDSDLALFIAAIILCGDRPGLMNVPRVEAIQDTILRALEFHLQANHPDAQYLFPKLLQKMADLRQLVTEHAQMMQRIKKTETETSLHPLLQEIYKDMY
Method: as §1, §2, §3

[3] = molecular target: T3, Gal-4 hPPARγ (Homo sapiens, UniProt P37231); assay: Gal4-hPPARγ transient transfection reporter assay in Cos cells; conditions: luciferase reporter, 24 hours with compound, scale 1-5, read-out: Gal-4 hPPAR γ EC50 (scaled number)
T3 construct: Plasmids pGal4-hPPARα, pGal4-hPPARγ, pGal4-hPPARδ and pG5-TK-pGL3 were constructed as previously described by Staels, Bart, et al., Nature 1998 Jun; 25
T3 sequence (P37231 238-505 limits assumed): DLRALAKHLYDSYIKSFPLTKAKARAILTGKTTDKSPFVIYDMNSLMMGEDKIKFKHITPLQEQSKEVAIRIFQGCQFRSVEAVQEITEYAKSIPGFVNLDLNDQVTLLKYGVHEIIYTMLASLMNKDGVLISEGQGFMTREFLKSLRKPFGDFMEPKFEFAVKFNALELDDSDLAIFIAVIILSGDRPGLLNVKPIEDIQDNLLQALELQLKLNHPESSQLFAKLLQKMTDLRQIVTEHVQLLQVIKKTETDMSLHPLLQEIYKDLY
Method: as §1, §2, §3

EC50 [1]	EC50 [2]	EC50 [3]	Structure (SMILES)
51 to 200 nM	> 1000 nM	> 1000 nM	CCCCCCn1c(COC(=O)c2ccc(OC(C)(C)C(=O)O)cc2)nn(Cc2ccc(C(F)(C(F)(F)F)C(F)(F)F)cc2)c1=O [Compound 204, 2-(4-(((4-hexyl-5-oxo-1-(4-(perfluoropropan-2-yl)benzyl)-4,5-dihydro-1H-1,2,4-triazol-3-yl)methoxy)carbonyl)phenoxy)-2-methylpropanoic acid]
51 to 200 nM	> 1000 nM	> 1000 nM	CC(C)(Sc1ccc(C(=O)OCc2cn(Cc3ccc(OC(F)(F)F)cc3)nn2)cc1)C(=O)O [Compound 73, 2-methyl-2-(4-(((1-(4-(trifluoromethoxy)benzyl)-1H-1,2,3-triazol-4-yl)methoxy)carbonyl)phenylthio)propanoic acid]
1 to 50 nM	> 1000 nM	> 1000 nM	CC(C)(Sc1ccc(C(=O)OCc2cnn(Cc3ccc4c(c3)C(C)(C)CCC4(C)C)c2)cc1)C(=O)O [Compound 29, 2-methyl-2-(4-(((1-((5,5,8,8-tetramethyl-5,6,7,8-tetrahydronaphthalen-2-yl)methyl)-1H-pyrazol-4-yl)methoxy)carbonyl)phenylthio)propanoic acid]
51 to 200 nM	> 1000 nM	> 1000 nM	CCCn1c(COC(=O)c2ccc(SC(C)(C)C(=O)O)cc2)nn(Cc2cccc(C(F)(F)F)c2)c1=O [Compound 176, 2-methyl-2-(4-(((5-oxo-4-propyl-1-(3-(trifluoromethyl)benzyl)-4,5-dihydro-1H-1,2,4-triazol-3-yl)methoxy)carbonyl)phenylthio)propanoic acid]
1 to 50 nM	> 1000 nM	201 to 999 nM	CCCn1c(COC(=O)c2ccc(SC(C)(C)C(=O)O)cc2)nn(Cc2cc(C(F)(F)F)cc(C(F)(F)F)c2)c1=O [Compound 177, 2-(4-(((1-(3,5-bis(trifluoromethyl)benzyl)-5-oxo-4-propyl-4,5-dihydro-1H-1,2,4-triazol-3-yl)methoxy)carbonyl)phenylthio)-2-methylpropanoic acid]
1 to 50 nM	> 1000 nM	> 1000 nM	CSc1ccc(Cn2cc(COC(=O)c3ccc(SC(C)(C)C(=O)O)cc3)cn2)cc1 [Compound 20, 2-methyl-2-(4-(((1-(4-(methylthio)benzyl)-1H-pyrazol-4-yl)methoxy)carbonyl)phenylthio)propanoic acid]
51 to 200 nM	> 1000 nM	> 1000 nM	CCn1c(COC(=O)c2ccc(OC(C)(C)C(=O)O)cc2)nn(Cc2ccc(C(C)(C)C)cc2)c1=O [Compound 196, 2-(4-(((1-(4-tert-butylbenzyl)-4-ethyl-5-oxo-4,5-dihydro-1H-1,2,4-triazol-3-yl)methoxy)carbonyl)phenoxy)-2-methylpropanoic acid]
1 to 50 nM	> 1000 nM	> 1000 nM	CCCCCCn1c(COC(=O)c2ccc(OC(C)(C)C(=O)O)cc2)nn(Cc2ccc(C(OC)(C(F)(F)F)C(F)(F)F)cc2)c1=O [Compound 202, 2-(4-(((1-(4-(1,1,1,3,3,3-hexafluoro-2-methoxypropan-2-yl)benzyl)-4-hexyl-5-oxo-4,5-dihydro-1H-1,2,4-triazol-3-yl)methoxy)carbonyl)phenoxy)-2-methylpropanoic acid]
51 to 200 nM	> 1000 nM	> 1000 nM	Cc1ccc(Cn2nc(COC(=O)c3ccc(SC(C)(C)C(=O)O)cc3)[nH]c2=O)cc1 [Compound 261, 4-(1-Carboxy-1-methyl-ethylsulfanyl)-benzoic acid 1-(4-methyl-benzyl)-5-oxo-4,5-dihydro-1H-1,2,4-triazol-3-ylmethyl ester]
201 to 999 nM	> 1000 nM	> 1000 nM	CCCn1c(COC(=O)c2ccc(OC(C)(C)C(=O)O)cc2)nn(Cc2cc(C(F)(F)F)cc(C(F)(F)F)c2)c1=O [Compound 206, 2-(4-(((1-(3,5-bis(trifluoromethyl)benzyl)-5-oxo-4-propyl-4,5-dihydro-1H-1,2,4-triazol-3-yl)methoxy)carbonyl)phenoxy)-2-methylpropanoic acid]
51 to 200 nM	> 1000 nM	> 1000 nM	CC(C)(Sc1ccc(C(=O)OCc2cn(Cc3ccc(SC(F)(F)F)cc3)nn2)cc1)C(=O)O [Compound 71, 2-methyl-2-(4-(((1-(4-(trifluoromethylthio)benzyl)-1H-1,2,3-triazol-4-yl)methoxy)carbonyl)phenylthio)propanoic acid]
51 to 200 nM	> 1000 nM	> 1000 nM	CC(C)(Sc1ccc(C(=O)OCc2cn(Cc3ccc(C(F)(F)F)cc3)nn2)cc1)C(=O)O [Compound 102, 2-methyl-2-(4-(((1-(4-(trifluoromethyl)benzyl)-1H-1,2,3-triazol-4-yl)methoxy)carbonyl)phenylthio)propanoic acid]
201 to 999 nM	> 1000 nM	> 1000 nM	Cc1ccc(Cn2cc(CCOC(=O)c3ccc(SC(C)(C)C(=O)O)cc3)nn2)cc1 [Compound 145, 4-(1-Carboxy-1-methyl-ethylsulfanyl)-benzoic acid 2-[1-(4-methyl-benzyl)-1H-1,2,3-triazol-4-yl]-ethyl ester]
201 to 999 nM	> 1000 nM	> 1000 nM	Cc1ccc(Cn2cc([C@H](C)OC(=O)c3ccc(SC(C)(C)C(=O)O)cc3)nn2)cc1 [Compound 85, (S)-2-methyl-2-(4-((1-(1-(4-methylbenzyl)-1H-1,2,3-triazol-4-yl)ethoxy)carbonyl)phenylthio)propanoic acid]
1 to 50 nM	> 1000 nM	> 1000 nM	CCCCCCn1c(COC(=O)c2ccc(SC(C)(C)C(=O)O)cc2)nn(Cc2ccc(C(F)(C(F)(F)F)C(F)(F)F)cc2)c1=O [Compound 203, 2-(4-(((4-hexyl-5-oxo-1-(4-(perfluoropropan-2-yl)benzyl)-4,5-dihydro-1H-1,2,4-triazol-3-yl)methoxy)carbonyl)phenylthio)-2-methylpropanoic acid]
1 to 50 nM	> 1000 nM	> 1000 nM	CCCn1c(COC(=O)c2ccc(SC(C)(C)C(=O)O)cc2)nn(Cc2ccc(-c3ccccc3)cc2)c1=O [Compound 163, 2-(4-(((1-(biphenyl-4-ylmethyl)-5-oxo-4-propyl-4,5-dihydro-1H-1,2,4-triazol-3-yl)methoxy)carbonyl)phenylthio)-2-methylpropanoic acid]
51 to 200 nM	> 1000 nM	> 1000 nM	COc1ccc(Cn2cc(COC(=O)c3ccc(SC(C)(C)C(=O)O)cc3)cn2)cc1 [Compound 8, 2-(4-(((1-(4-methoxybenzyl)-1H-pyrazol-4-yl)methoxy)carbonyl)phenylthio)-2-methylpropanoic acid]
51 to 200 nM	> 1000 nM	> 1000 nM	CCn1c(COC(=O)c2ccc(SC(C)(C)C(=O)O)cc2)nn(Cc2ccc(C)cc2)c1=O [Compound 193, 2-(4-(((4-ethyl-1-(4-methylbenzyl)-5-oxo-4,5-dihydro-1H-1,2,4-triazol-3-yl)methoxy)carbonyl)phenylthio)-2-methylpropanoic acid]
